The values below come from publication PMC9610702, “Synthesis, Characterization, and Biological Evaluation of Tetrahydropyrimidines: Dual-Activity and Mechanism of Action” (Pharmaceutics, 2022).

What is called MIC is the lowest concentration found to suppress growth. One may read the IC50 as the concentration needed to halve the response being measured.

Values after ≈ are worked out from the molar mass of the structure shown.

One assay relates to Proteus mirabilis. Nature of the assay: antibacterial MIC, broth tube dilution. The assay is classed as cell-based. As to conditions: ND = not detected, read-out: MIC. The text has this:
(§1) In this paper, the synthesis, characterization, and biological evaluation of the novel tetrahydropyrimidines—THPMs are described. THPMs are well-known for wide pharmacological activities such as antimicrobial, anticancer, antiviral, etc. This research includes obtained results of in vitro antimicrobial, anticancer, and α-glucosidase inhibitory activities of the eleven novel THPMs. An antibiotic assessment was done against five bacteria (two Gram-positive and three Gram-negative) and five fungi by determining the minimal inhibitory concentration (MIC), using the broth tube dilution method. […] The cytotoxic activity was performed on the tumor cell lines (HeLa, K562, and MDA-MB-231) and normal cells (MRC-5). The best antitumor activity was shown by compounds 4b and 4k against HeLa cell lines.
(§2) All materials and methods used for biological examination (antibacterial, antifungal, anticancer, and α-glucosidase inhibitory activities) and crystal structure determination are presented in the Supplementary Materials, File S1.

For another assay, the system named is Bacillus subtilis. As to the kind of experiment: antibacterial MIC, broth tube dilution. It is filed as cell-based.
Source text: as §1, §2

Another assay has as its system Klebsiella oxytoca. As to the kind of experiment: antibacterial MIC, broth tube dilution. It is filed as cell-based.
Source text: as §1, §2

The test system of the next assay is Escherichia coli. As to the kind of experiment: antibacterial MIC, broth tube dilution. The assay is classed as cell-based.
Source text: as §1, §2

The next assay relates to Staphylococcus aureus. As to the kind of experiment: antibacterial MIC, broth tube dilution. The assay is classed as cell-based.
Source text: as §1, §2

In the next assay the test system is MDA-MB-231 cells. As to the kind of experiment: cytotoxic activity. The assay is classed as cell-based. As to conditions: Homo sapiens, three independent experiments in triplicate, read-out: IC50 Average ± SD. The text has this:
(§3) All materials and methods used for biological examination (antibacterial, antifungal, anticancer, and α-glucosidase inhibitory activities) and crystal structure determination are presented in the Supplementary Materials, File S1. The cytotoxic activity of eleven novel compounds was examined against HeLa, K562, MDA-MB-231, and MRC-5. The tested compounds exerted concentration-dependent cytotoxic effects on cell lines. […] Compared to compound 4j, 4k has a methyl group in para position of benzoyl fragment; so, probably this structural difference is responsible for better activity and selectivity of compound 4k on HeLa (43.63 ± 1.49 µM) and K562 (39.11 ± 2.90 µM).

The test system of assay [1] is HeLa cells. As to the kind of experiment: cytotoxic activity. The assay is classed as cell-based. As to conditions: for selectivity coefficient: HeLa compared with MRC-5 cells; for IC50: Homo sapiens, HeLa, three independent experiments in triplicate, read-out: IC50 Average ± SD.
Source text: as §3

Another assay deals with K562 cells. As to the kind of experiment: cytotoxic activity. As to conditions: for IC50: Homo sapiens, K562, three independent experiments in triplicate, read-out: IC50 Average ± SD. It is filed as cell-based.
Source text: as §3

Another assay has as its system Penicillium italicum. Nature of the assay: antifungal MIC, broth tube dilution. It is filed as cell-based.
Source text: as §1, §2

A further assay relates to Mucor mucedo. Nature of the assay: antifungal MIC, broth tube dilution. It is filed as cell-based.
Source text: as §1, §2

The subject of assay [2] is Trichophyton mentagrophytes. As to the kind of experiment: antifungal MIC, broth tube dilution. It is filed as cell-based.
Source text: as §1, §2

In a further assay the test system is Aspergillus niger. Nature of the assay: antifungal MIC, broth tube dilution. The assay is classed as cell-based.
Source text: as §1, §2

A further assay relates to Aspergillus flavus. As to the kind of experiment: antifungal MIC, broth tube dilution. The assay is classed as cell-based.
Source text: as §1, §2

Assay [3] has as its system normal human lung fibroblasts MRC-5. Nature of the assay: cytotoxic activity on normal cells. It is filed as cell-based. As to conditions: MRC5, MRC-5 normal fibroblasts, three independent experiments in triplicate, read-out: IC50 Average ± SD.
Source text: as §2
The cytotoxic activity of eleven novel compounds was examined against HeLa, K562, MDA-MB-231, and MRC-5.
The cytotoxic activity was examined against HeLa, K562, MDA-MB-231 cells, and normal human lung fibroblasts MRC-5. […] In addition, the effects of the 4k and 4b on the cell cycle were examined.

Another assay addresses α-glucosidase. As to the kind of experiment: α-glucosidase inhibitory activity. The assay is classed as biochemical. As to conditions: average ± SD of two experiments.
Source text: as §2

The test system of assay [4] is HeLa cells. Nature of the assay: cell-cycle phase distribution. It is filed as cell-based. As to conditions: 24 h, IC50 and 2IC50 concentrations, vs untreated control.
Source text: as §2
The observed changes in the amounts of treated cells within subG1 and G1 phases of the cell cycle were accompanied with decreased percentages of cells within the S and G2/M phases.
The data shown represent the average ± standard deviation of two independent experiments.

Assay [5] relates to HeLa cells. Nature of the assay: morphological evaluation of cell death mode, acridine orange/ethidium bromide staining. The assay is classed as cell-based. As to conditions: 24 h, 2IC50 concentration. The procedure: as §2
The photomicrographs of control HeLa cells and HeLa cells incubated for 24 h with 2IC50 concentrations of the compounds 4b and 4k and stained with a mixture of acridine orange/ethidium bromide are presented in Figure 5. […] Orange-red-stained shrunken cells with condensed chromatin in later stages of apoptosis were detected as well. […] The proapoptotic effect of compound 4b was to some extent stronger when comparing with effect of compound 4k.
Figure 5 Photomicrographs of acridine orange/ethidium bromide-stained control HeLa cells and HeLa cells incubated with 2IC50 concentrations of compounds 4b and 4k during 24 h (magnification 20×). Representative photomicrographs are shown.

Take `COC(=O)C1=C(C)N(C)C(=S)NC1c1cc(I)c(O)c(OC)c1` (centres unmarked) [4b]: the MIC with Proteus mirabilis was 810 µg/mL (≈ 1.81 mM); in the assay with Bacillus subtilis, 3250 µg/mL (≈ 7.25 mM); against Klebsiella oxytoca, 1620 µg/mL (≈ 3.61 mM); with Escherichia coli, 1620 µg/mL (≈ 3.61 mM); in the assay on Staphylococcus aureus, 1620 µg/mL (≈ 3.61 mM); in the assay with Penicillium italicum it was 1620 µg/mL (≈ 3.61 mM). For the same molecule, the minimal inhibitory concentration (MIC) came out at 1620 µg/mL (≈ 3.61 mM) against Mucor mucedo, 400 µg/mL (≈ 0.892 mM) in [2], 810 µg/mL (≈ 1.81 mM) against Aspergillus niger and 1620 µg/mL (≈ 3.61 mM) in the assay on Aspergillus flavus. For the same molecule, the IC50 with MDA-MB-231 cells worked out at 116 ± 8.71 µM; in the assay with HeLa cells [1], 52.6 ± 4.45 µM; in the assay with K562 cells, 76.8 ± 5.01 µM; in assay [3] it was 112 ± 10.8 µM; against α-glucosidase, 292 ± 6.67 µM. The molecule further showed a selectivity coefficient in the assay with HeLa cells [1] of 2.13. In addition, the “percentage of HeLa cells in the G1 phase” value in the assay on HeLa cells [4] is given as “pronounced increase”. In addition, in the assay on HeLa cells [4], the “percentage of dead cells within subG1 phase” value is recorded as “increase”. Moreover, the “percentages of cells within the S and G2/M phases” value in the assay on HeLa cells [4] is on record as “decreased”. Also, the “cell death mode (apoptosis)” value in the assay on HeLa cells [5] was “induce apoptotic cell death”.

For `COC(=O)C1=C(C)N(C)C(=S)NC1c1ccc(OC(=O)c2ccc(C)cc2)c(OC)c1` (centres unmarked) [4k], the MIC in the assay with Proteus mirabilis came out at 3250 µg/mL (≈ 7.38 mM); in the assay on Bacillus subtilis, 3250 µg/mL (≈ 7.38 mM); with Klebsiella oxytoca it was 3250 µg/mL (≈ 7.38 mM); against Escherichia coli it was 3250 µg/mL (≈ 7.38 mM); with Staphylococcus aureus it was 3250 µg/mL (≈ 7.38 mM); against Penicillium italicum, 1620 µg/mL (≈ 3.68 mM). Moreover, the minimal inhibitory concentration (MIC) with Mucor mucedo was 1620 µg/mL (≈ 3.68 mM); in [2], 200 µg/mL (≈ 0.454 mM); against Aspergillus niger, 1620 µg/mL (≈ 3.68 mM); in the assay with Aspergillus flavus, 810 µg/mL (≈ 1.84 mM). Moreover, the concentration for half-maximal inhibition (IC50) with MDA-MB-231 cells is 74.1 ± 1.25 µM; with HeLa cells [1] it was 43.6 µM; in the assay with K562 cells, 39.1 ± 2.9 µM; in assay [3], 87.2 ± 7.31 µM; at α-glucosidase, 1080 ± 54.5 µM. The results for the selectivity coefficient with HeLa cells [1] and in the assay with K562 cells (K562 compared with MRC-5 cells) were 2 and 2.23, respectively. Moreover, the “percentage of HeLa cells in the G1 phase” value in the assay with HeLa cells [4] is “pronounced increase”. Moreover, the “percentage of dead cells within subG1 phase” value with HeLa cells [4] is reported as “increase”. Besides, in the assay on HeLa cells [4], the “percentages of cells within the S and G2/M phases” value was “decreased”. The “cell death mode (apoptosis)” value in the assay with HeLa cells [5] is “activate apoptosis”.
